Assay results taken from patent US12648941B2, “Piperidine urea derivatives for use as inotropic agents” (Helsinn Healthcare SA, priority 2021, dated 2026).
Entries after “also recorded” stand apart in the source; their conditions may differ.

Experiments:
[1] = system: cardiomyocytes isolated from hearts of SHAM mice; assay: Cardiomyocyte contractility (fractional shortening, % FS), SHAM cardiomyocytes; type: cell-based, mouse
Description: (§1) Cardiomyocytes were isolated freshly from cardiac ventricles separately from SHAM and HF mice following the protocol developed by the Alliance for Cellular Signalling (AfCS Procedure Protocol ID PP00000125). From each of the 5 SHAM and 3 HF hearts a cell suspension was made and divided into 10 aliquots each, for a total of 50 aliquots from SHAM and 30 aliquots from HF hearts. These aliquots were treated with vehicle, AC01/HM01 or D-Lys3-GHPR-6+AC01/HM01 as stated and used for the subsequent physiological and biochemical experiments.
(§2) AC01/HM01 was suspended in phosphate buffer saline solution (PBS: in mM: NaCl 137, KCl 7, Na2HPO4 10, KH2PO4 […]) and diluted to obtain 3 different concentrations: 0.2, 0.5 or 1 μM in Tyrode solution. We used a concentration range within 0.2-1 μM to ensure that the receptor was activated. […] Prior to contractility and Ca^2+ signaling measurements and biochemical assays, cardiomyocyte suspensions from SHAM and HF hearts were randomized to 3 types of treatments: vehicle, AC01/HM01, or D-Lys3-GHPR-6+AC01/HM01. The treatment with different agents occurred for 15 minutes at room temperature. Some cell suspension aliquots were flash frozen in liquid N2 and stored at −80° C. for later biochemistry analyses. All the experiments were conducted blinded regarding the treatment of cardiomyocytes.
Fresh isolated cardiomyocytes were aliquoted in 1.5 mL tubes and incubated with a cell permeable form of the fluorescent Ca^2+ indicator Fluo-3 AM for approximately 20 minutes followed by washing for >5 min. The cells were plated on laminin coated glass bottom dishes (35 mm, Mattek, Ashland, MA, USA), and then mounted in a custom built perfusion/stimulation chamber. Cells were continuously perfused with O2/CO2 (95/5%) bubbled Tyrode solution with the following composition (in mM): NaCl 121, KCl 5.0, CaCl2 1.8, MgCl2 0.5, NaH2PO4 0.4, NaHCO3 24, EDTA 0.1, glucose 5.5, which represents the vehicle solution.
15 aliquots of cardiomyocyte suspension from SHAM and 9 aliquots from HF were randomized to different treatments: vehicle, AC01/HM01 (0.2, 0.5 or 1 μM) or pretreatment with D-Lys3-GHPR-6 (3 μM) followed by AC01/HM01 (1 μM). The cardiomyocytes were electrically stimulated to contract at 1 Hz with supra-threshold voltage using two platinum electrodes attached to the perfusion/stimulation chamber.
Line scan fluorescence images were acquired using a confocal microscope (Biorad; 40× oil immersion lenses). […] ImageJ software (open source software developed by NIH, Bethesda, USA) was used to quantify changes in fluorescence (Ca^2+ transients) and contractility of single cardiomyocytes.
The contractility of cardiomyocytes was measured as the percent of length shortening (fractional shortening; % FS). […]

[2] = system: cardiomyocytes isolated from hearts of SHAM mice; assay: Intracellular Ca2+ transients (Fluo-3, confocal line scan); type: cell-based, mouse
Description: as §1, §2
Fresh isolated cardiomyocytes were aliquoted in 1.5 ml tubes and incubated with a cell permeable form of fluorescent Ca2+ indicator Fluo-3 AM followed by washing for >5 min. […] ImageJ software (open source software developed by NIH, Bethesda, USA) was used to quantify changes in fluorescence (Ca2+ transients) and contractility of single cardiomyocytes.
Ca^2+ transients were measured using a confocal microscope (Biorad) in line scan mode. […] The fluorescent signal (F/Fo) was calculated as the ratio between resting fluorescence before the start of the Ca^2+ transient (FO) and the peak fluorescence (F) of the Ca^2+ transient.

[3] = Phase 1 single ascending dose study, urinary excretion; type: in vivo, human; details: 10 mg dose; urine collected 24 hours
Description: Blood samples for analytical assay of HM01 and the 3 major metabolites (M2, M6 and M9) were collected at pre-dose (within 60 minutes prior to drug administration), and at 0.25, 0.5, 1, 1.5, 2, 3, 4, 6, 8, 12, 16, 24, 30, 36, 48, 60 and 72 hours post dose (18 samples). Urine was collected for 24 hours after dosing. Blood and urine samples were analyzed for HM01 and its metabolites concentrations using validated LC-MS/MS methods.
Additional parameters were derived from urine, i.e., Ae(0-24), the amount of the parent drug and metabolites excreted in 24 h, and CLR, the renal clearance.

[4] = system: growth hormone (GH); assay: Phase 1 SAD pharmacodynamics, serum GH (ELISA); type: in vivo, human
Description: (§3) Blood samples for determination of growth hormone (GH), insulin-like growth factor-1 (IGF-1), adrenocorticotropic hormone (ACTH), prolactin, cortisol and aldosterone in serum at pre-dose and 0.5, 1, 2, 3, 4, 6 and 24 hours post-dose were collected by venous puncture. All biomarkers were determined using enzyme linked immunosorbent assays (ELISA). Simplified nutritional appetite questionnaire based on appetite assessments at Day −1 after dinner, and on Day 1 pre-dose, 1, 2, 4, 8, and 24 hours after dosing. Stool diary starting on Day 1 until discharge on Day 4.

[5] = system: adrenocorticotropic hormone (ACTH); assay: Phase 1 SAD pharmacodynamics, serum ACTH (ELISA); type: in vivo, human; details: higher doses; ACTH determined only after 1.0 mg
Description: as §3

[6] = system: cortisol; assay: Phase 1 SAD pharmacodynamics, serum cortisol (ELISA); type: in vivo, human
Description: as §3

[7] = Phase 1 SAD, stool diary; type: in vivo, human; details: between dose groups
Description: as §3

fraction of the dose excreted in the urine [3]: Approximately 10%
SMILES: COc1ccc([C@H](C)NC(=O)N(C)[C@@H]2CCN(C)CC2(C)C)c(Cl)c1Cl.Cl [AC01/HM01, 1-[(1S)-1-(2,3-dichloro-4-methoxyphenyl)ethyl]-3-methyl-3-[(4R)-1-methyl-3,3-dimethyl-4-piperidyl]-urea]
contractility, fractional shortening (FS %) vs vehicle ([1]; 0.5 μM): considerable and statistically significant response
contractility, fractional shortening (FS %) vs vehicle ([1]; 1 μM): considerable and statistically significant response; also recorded: significant increase of contractility; also recorded: greatest contractile effect compared to vehicle; also recorded: positively responded
contractility, length fractional shortening (FS %), concentration dependence ([1]; 0.2, 0.5 and 1 μM vs vehicle, 1 Hz stimulation): increased in a dose-dependent manner; also recorded: dose-dependent increase
Ca2+ transient amplitude vs vehicle ([2]; 1 μM, with D-Lys 3 GHRP-6 pretreatment): did not have any impact on Ca^2+ transient amplitudes; also recorded: did not change the Ca^2+ transient amplitude
Ca2+ transient amplitude vs vehicle ([2]; 1 μM, without D-Lys3 pretreatment): did not have any impact on Ca^2+ transient amplitudes; also recorded: did not change the Ca^2+ transient amplitude
Ca2+ transient amplitude vs vehicle ([2]; all tested concentrations (0.2, 0.5, 1 μM)): no significant change in Ca^2+ transient amplitude; also recorded: did not cause alteration of Ca^2+ transient amplitudes
GH increase ([4]; 0.3 and 0.1 mg HM01): lower increases
GH increase ([4]; 1.0 and 10 mg HM01): higher
mean GH curves, comparison of doses ([4]; 1.0 vs 10 mg HM01): similar
time of peak GH concentrations ([4]; after single oral administration): 2-3 hours post-dose
concentrations of GH vs baseline ([4]; after single oral administration, healthy males): increased from baseline
concentrations of ACTH [5]: rapidly increased above baseline values
concentrations of cortisol ([6]; 1.0 and 10 mg HM01): rapidly increased above baseline values
cortisol increase, comparison of doses ([6]; 1.0 vs 10 mg): similar
number of bowel movements per day and number of subjects with bowel movement [7]: no dose-related differences
